Test results published in paper PMC7801616, “Surface hydrophobics mediate functional dimerization of CYP121A1 of Mycobacterium tuberculosis” (Scientific Reports, 2021).

Key:
[1] = tested on: WT CYP121A1 heme thiolate-CO complex
CYP121A1 dimer = details: cited from earlier work
Mtb = details: cited from earlier work

## O=C1N[C@@H](Cc2ccc(O)cc2)C(=O)N[C@H]1Cc1ccc(O)cc1 [cYY, cyclo-L-Tyr-L-Tyr]
[1]
  change of heme thiolate-CO complex stability with bound substrate: little change

## Clc1ccccc1C(c1ccccc1)(c1ccccc1)n1ccnc1 [clotrimazole]
CYP121A1 dimer
  effect on dimerization of the enzyme: disrupts dimerization of the enzyme

## Clc1ccc(COC(Cn2ccnc2)c2ccc(Cl)cc2Cl)cc1 (centres unmarked) [econazole]
CYP121A1 dimer
  effect on dimerization of the enzyme: disrupts dimerization of the enzyme

## CC(=O)N1CCN(c2ccc(OCC3COC(Cn4ccnc4)(c4ccc(Cl)cc4Cl)O3)cc2)CC1 (centres unmarked) [ketoconazole]
WT CYP121A1
  effect of ligand on thermal stability: modest increase in the stability
Mtb
  inhibition of Mtb growth: does not significantly inhibit Mtb growth
